Source: article PMC11001709, “Anti-toxoplasma activity and DNA-binding of copper(II) and zinc(II) coordination compounds with 5-nitroimidazole-based ligands” (Journal of Biological Inorganic Chemistry, 2023)
Like-named read-outs stand apart in the source and are kept apart here.

Assays:
[1] = test system: ct-DNA; assay: Competitive displacement of ethidium bromide from DNA (fluorescence); type: binding, calf; settings: EB 75 µM, [DNA]b = 30 µM, compound 0-50 µM, 1 h
Procedure: For the UV–Vis, fluorescence and circular dichroism assays the concentration of ct-DNA was determined on a Varian Cary 100 Scan spectrophotometer from the absorption at 260 nm and the corresponding molar absorptivity of 6600 M^−1 cm^−1 (nucleobase concentration). The stock solutions of the coordination compounds and the free ligands were prepared in cacodylate/NaCl buffer (1 mM cacodylic acid and 20 mM sodium chloride) at pH 7.25. The final samples contained a DMSO concentration of 0.2%.
Emission intensity of the dyes DNA-intercalator ethidium bromide, EB (λexc = 514 nm) and the minor-groove binder Hoechst 33,258 (λexc = 350 nm) was measured on iHR320 HORIBA JOBIN YVON spectrofluorometer. The samples contained 15 µM (in base pairs) of ct-DNA and 75 µM of EB […] in cacodylate/NaCl buffer. The respective dye was incubated for 30 min with ct-DNA to allow its binding to the biomolecule. Subsequently, increasing amounts of coordination compounds (0–50 µM) were added up to a final volume of 2 mL, and the samples were incubated for 1 h at 37 °C. The fluorescence spectra of all samples were recorded at room temperature. The affinity of the compounds for ct-DNA compared to EB was evaluated through the Stern–Volmer quenching constant Ksv, from Eq. 3:3 I0/I=1+Ksvcompound where I0 and I are the emission intensities in absence and the presence of the compound, respectively.
With the aim to corroborate the binding mode of the coordination compounds with DNA competitive displacement assays were carried out by florescence spectroscopy. The fluorescence of ethidium bromide (EB) increases when it intercalates between DNA base pairs, forming an EB-DNA adduct. Competitive binding assays will lead to a decrease of the fluorescence intensity (λexc = 514 nm; λem = 610 nm) if the interacting molecule is capable of displacing EB from the DNA helix. Solutions containing constant concentrations of DNA (30 µM) and EB (75 µM) were incubated for 30 min. Then the coordination compounds to be tested were added in a concentration in the range of 0–50 µM (corresponding to [complex]/[DNA] ratios between = 0 and 3.3), and fluorescence spectra were recorded after 1 h of incubation.

[2] = test system: pBR322 plasmid DNA; assay: Agarose gel electrophoresis, DNA cleavage; type: biochemical
Procedure: Electrophoresis assays were performed in 1.5% agarose gel and 1× TBE buffer using the DNA plasmid pBR322. The plasmid (15 µM base pairs) was incubated with 10 and 50 μM concentrations of the coordination compounds for 1 h at 37 °C in presence and absence of ascorbic acid (50 μM) as reducing agent and hydrogen peroxide (500 µM) as ROS generator in a final volume of 20 μL. The DNA-cleaving compound [Cu(phen)2(H2O)](NO3)2 was used as reference. The samples were loaded into the gel with 4 μL of a loading buffer (30% glycerol, 5 mM xylene cyanol), and electrophoresis was performed in 1× TBE at 100 V for 1 h in a Bio-Rad horizontal tank. Subsequently, the gel was stained with SYBR™ Safe overnight and images were acquired with a Gel Doc EZ Imager instrument (Bio-Rad).
Distinct forms of pBR322 plasmid DNA are commonly observed by gel electrophoresis due to the conformational changes that present distinct electrophoretic mobility: (1) supercoiled DNA (Form I) that migrates faster on the gel, (2) circular nicked (Form II), obtained from a one-strand scission, has a slower migration through the gel and (3) linear form (Form III) is generated when both strands are cleaved and migrates between forms I and II [54]. The interaction of the free ligands and their copper(II) and zinc(II) coordination compounds with pBR322 was investigated in presence of H2Asc (50 μM) as reducing agent and H2O2 (500 μM) as ROS generator. Solutions of 10 and 50 µM of the coordination compounds were incubated with the DNA at 37 °C for 1 h.

[3] = test system: RH tachyzoites of Toxoplasma gondii; assay: Viability of extracellular tachyzoites, Sytox Green exclusion test; type: cell-based
Procedure: RH tachyzoites of Toxoplasma gondii were extracted in PBS solution at pH 7.4 from intraperitoneal fluid of infected CD1 mice on the third day of infection and centrifuged for ten minutes at 260g. Purified parasites were used within 4 h after their isolation.
The viability of the parasites was determined from staining with Sytox Green® fluorescent dye exclusion test. Purified tachyzoites (1 × 10^6) were incubated for one hour at room temperature with PBS solutions of the coordination compounds or the free ligands at concentrations of 40, 20, 10, 5, and 2.5 µM (0.1% DMSO), in a volume final of 1 mL. After the incubation time, the samples were centrifuged for 10 min at 250g, the medium was removed and 20 µL of Sytox Green® was added after 15 min of incubation for differentiate dead parasites in a Neubauer chamber. The assays were performed in triplicate. The half maximal inhibitory concentration (IC50) was calculated by Boltzmann regression analysis and expressed as mean ± standard error of three replicates. Based on the results the tachyzoites were incubated under the same conditions with the coordination compounds [Cu(onz)2Cl2] and [Cu(onz)2Br2] at their respective IC50 values, Sytox Green® was then added, and they were observed by fluorescence microscopy. Sulfadiazine was used as positive control.
Viability assays were performed against tachyzoites of Toxoplasma gondii. The RH strain was used to evaluate the effect of different concentrations (namely, 2.5, 5, 10, 20 and 40 µM) of the coordination compounds and the free 5-nitroimidazole against the tachyzoites. The evaluation were performed in PBS buffer (pH 7.4) with Sytox Green® exclusion test, which allows differentiating dead from live tachyzoites, since the intact cell membrane of alive ones is not stained.

[4] = compound 10 (mM in the source), + H2Asc
[5] = compound 10 (mM in the source), + H2Asc + H2O2
[6] = compound 10 (mM in the source), + H2O2
[7] = compound 10 (mM in the source), no additive
[8] = compound 50 (mM in the source), + H2Asc
[9] = compound 50 (mM in the source), + H2Asc + H2O2
[10] = compound 50 (mM in the source), + H2O2
[11] = compound 50 (mM in the source), no additive
[12] = 1 h, PBS pH 7.4, mean ± standard error of three replicates, read-out: IC50
[13] = viability vs concentration, read-out: IC50 (Boltzman Fit, Fig. S6)

SMILES	Ethidium bromide Ksv [1]	%Damage [2, 4]	%Supercoiled [2, 4]	%Damage [2, 5]	%Damage [2, 6]	%Nicked [2, 6]	%Supercoiled [2, 6]	%Damage [2, 7]	%Nicked [2, 7]	%Supercoiled [2, 7]	%Damage [2, 8]	%Damage [2, 9]	%Damage [2, 10]	%Damage [2, 11]	%Nicked [2, 11]	%Supercoiled [2, 11]	IC50 [3, 12]	IC50 [3, 13]	%Nicked [2, 4]	%Nicked [2, 5]	other results
Cc1ncc([N+](=O)[O-])n1CCCl.Cc1ncc([N+](=O)[O-])n1CCCl.[Br][Cu][Br] [[Cu(cenz)2Br2]]	35000 M⁻¹	43.90%	56.10%	100.00%	84.00%	37.10%	16.00%	37.80%	11.30%	62.20%	100.00%	100.00%	100.00%	33.80%	7.50%	66.20%					
Cc1ncc([N+](=O)[O-])n1CCCl.Cc1ncc([N+](=O)[O-])n1CCCl.[Cl][Cu][Cl] [[Cu(cenz)2Cl2]]		33.20%	66.80%	100.00%	83.50%	84.30%	16.50%	12.00%		88.00%	100.00%	100.00%	100.00%	31.50%		68.50%	30.55 ± 0.25 µM	30.6 µM	16.60%		
Cc1n(CC(O)CCl)c([N+](=O)[O-])c[n+]1[Cu-2]([Br])([Br])[n+]1cc([N+](=O)[O-])n(CC(O)CCl)c1C (stereo not drawn) [[Cu(onz)2Br2]]	43000 M⁻¹	44.70%	55.30%	100.00%	100.00%			7.80%		92.20%	100.00%	100.00%	100.00%	6.70%	23.00%	93.30%	2.73 ± 0.34 µM	2.73 µM	35.60%		
Cc1ncc([N+](=O)[O-])n1CC(O)CCl.Cc1ncc([N+](=O)[O-])n1CC(O)CCl.[Cl-].[Cl-].[Cu+2] (stereo not drawn) [[Cu(onz)2Cl2]]	26000 M⁻¹	58.10%	41.90%	80.60%	16.40%	6.10%	83.60%	36.40%	6.40%	63.60%	100.00%	100.00%	100.00%	33.80%	9.70%	66.20%	8.49 ± 0.64 µM	8.49 µM	33.00%	46.50%	%Supercoiled [2, 5]: 19.40%
Cc1ncc([N+](=O)[O-])n1CCCl.Cc1ncc([N+](=O)[O-])n1CCCl.[Br][Zn][Br] [[Zn(cenz)2Br2]]	1100 M⁻¹	28.40%	71.60%	89.00%	19.30%	27.20%	80.70%	6.20%	3.00%	93.80%	96.10%	78.40%	98.40%	11.60%	2.20%	88.40%	40 ± 0.96 µM	40 µM	6.40%	75.80%	%Supercoiled [2, 5]: 11.00%; %Nicked [2, 8]: 39.50%; %Supercoiled [2, 8]: 3.90%; %Nicked [2, 9]: 10.40%; %Supercoiled [2, 9]: 21.60%; %Nicked [2, 10]: 63.30%; %Supercoiled [2, 10]: 1.60%
Cc1ncc([N+](=O)[O-])n1CC(O)CCl.Cc1ncc([N+](=O)[O-])n1CC(O)CCl.[Cl][Zn][Cl] (stereo not drawn) [[Zn(onz)2Cl2]]	4500 M⁻¹	91.2%	8.80%	67.90%	10.80%	5.90%	89.20%	14.6%		85.40%	100%	100.00%	78.30%	32.9%	3.90%	67.10%			65.70%	44.00%	%Supercoiled [2, 5]: 32.10%; %Nicked [2, 8]: 4.80%; %Nicked [2, 10]: 47.60%; %Supercoiled [2, 10]: 21.70%
